SMILES strings stand for the structures.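 These data come from cells grown in 96-well plates and exposed to compound for 48 hours at five concentrations. The concentration for 50% growth inhibition is given as GI50. At the TGI there is no net growth.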 A value given as a limit tells only on which side of the number the result lay.

Test systems include EKVX NSCLC; A498 renal; U251 CNS; SK-MEL-28 melanoma; BT-549 breast; OVCAR-3 ovarian; NCI-H522 lung; MDA-MB-435; SN12C renal; NCI-H226 lung.
What all share (assay): NCI tumour cell line growth inhibition, 48 h

`Fc1ccc(Nc2nc(Nc3ccc(-c4nc5ccccc5[nH]4)cc3)nc(N3CCCC3)n2)cc1`: the GI50 in the assay with EKVX NSCLC is 2.27 µM; with A498 renal it was 12.8 µM; in the assay with U251 CNS it was 2.37 µM; with SK-MEL-28 melanoma, 1.87 µM; with BT-549 breast, 6.9 µM; with OVCAR-3 ovarian, 2.75 µM. The GI50 is 2.16 µM with NCI-H522 lung, 3.38 µM in the assay with MDA-MB-435, 2.25 µM in the assay with SN12C renal and 14.2 µM in the assay on NCI-H226 lung. The TGI in the assay with EKVX NSCLC came out at 12.8 µM; in the assay on A498 renal, 25.7 µM; in the assay on U251 CNS it was 5.82 µM; in the assay on SK-MEL-28 melanoma, 3.66 µM; in the assay on BT-549 breast it was 20.7 µM; in the assay on OVCAR-3 ovarian, 6.61 µM. Further, the TGI in the assay with NCI-H522 lung is 4.91 µM; with MDA-MB-435, 11.3 µM; in the assay with SN12C renal it was 5.24 µM; with NCI-H226 lung it was 34.9 µM.
Consider `CC1SC(c2cccs2)N(NC(=O)C(O)c2ccccc2)C1=O` (centres undefined), for which the GI50 with EKVX NSCLC, in the assay on A498 renal, in the assay with U251 CNS, in the assay with SK-MEL-28 melanoma, in the assay on BT-549 breast and with OVCAR-3 ovarian was over 100 µM throughout. In addition, the GI50 in the assay on NCI-H522 lung, in the assay with MDA-MB-435, in the assay with SN12C renal and with NCI-H226 lung was over 100 µM in each case. For the same molecule, the TGI in the assay on EKVX NSCLC, with A498 renal, in the assay with U251 CNS, in the assay with SK-MEL-28 melanoma, with BT-549 breast and with OVCAR-3 ovarian was over 100 µM throughout. Also, the TGI in the assay on NCI-H522 lung, in the assay on MDA-MB-435, in the assay on SN12C renal and with NCI-H226 lung was over 100 µM each time.
On to `CN(C)CCn1cc(-c2ccc3c(Nc4ccc(CC(=O)Nc5cccc(F)c5)cc4)ncnc3c2)cn1`, for which the GI50 in the assay with EKVX NSCLC is 5.89 µM; with A498 renal it was over 10 µM; in the assay with U251 CNS, 1.56 µM; in the assay with SK-MEL-28 melanoma, 1.61 µM; in the assay on BT-549 breast, 4.78 µM; in the assay with OVCAR-3 ovarian it was 1.6 µM. In addition, the GI50 in the assay with NCI-H522 lung is 1.32 µM; in the assay with MDA-MB-435, 2.86 µM; with SN12C renal it was 1.53 µM; with NCI-H226 lung, over 10 µM. Besides, the TGI with EKVX NSCLC was over 10 µM; in the assay with A498 renal it was over 10 µM; in the assay with U251 CNS it was 3.45 µM; in the assay on SK-MEL-28 melanoma, 3.02 µM; with BT-549 breast, over 10 µM; in the assay on OVCAR-3 ovarian, 3.48 µM. Moreover, the TGI was 3.22 µM with NCI-H522 lung, over 10 µM with MDA-MB-435, 3.64 µM in the assay on SN12C renal and over 10 µM in the assay with NCI-H226 lung.
Take `CO/N=C1/c2cc(OC)ccc2-c2c(NOC)nc3ccccc3c21`: the GI50 in the assay with EKVX NSCLC is 31.7 µM; with A498 renal, 16.1 µM; with U251 CNS, 13 µM; in the assay on SK-MEL-28 melanoma it was 85.2 µM; with BT-549 breast it was 21.9 µM; in the assay with OVCAR-3 ovarian, 49.2 µM. Further, the GI50 in the assay with NCI-H522 lung was 26.6 µM; in the assay on MDA-MB-435, over 100 µM; in the assay with SN12C renal, 29.5 µM; in the assay with NCI-H226 lung, 35.1 µM. Moreover, the TGI in the assay with EKVX NSCLC was over 100 µM; in the assay with A498 renal, 36.9 µM; in the assay on U251 CNS, 25.7 µM; in the assay on SK-MEL-28 melanoma it was over 100 µM; with BT-549 breast it was 49.6 µM; in the assay on OVCAR-3 ovarian, over 100 µM. Besides, the TGI in the assay on NCI-H522 lung, in the assay on MDA-MB-435, in the assay on SN12C renal and in the assay on NCI-H226 lung was over 100 µM each time.
Regarding `Cn1c(=O)c(Cc2ccc(F)cc2F)cc2cnc(NC3CCOCC3)nc21`, the GI50 in the assay with A498 renal is 12.3 µM; with U251 CNS, over 25 µM; with SK-MEL-28 melanoma, over 25 µM; in the assay with BT-549 breast it was over 16.6 µM; in the assay on OVCAR-3 ovarian it was over 25 µM; in the assay with NCI-H522 lung, over 25 µM. Besides, the GI50 is over 25 µM with MDA-MB-435, over 19.8 µM with SN12C renal and over 21.1 µM in the assay with NCI-H226 lung. In addition, the TGI in the assay with A498 renal, in the assay with U251 CNS, in the assay with SK-MEL-28 melanoma, with BT-549 breast, in the assay on OVCAR-3 ovarian and in the assay on NCI-H522 lung was over 25 µM in each case. In addition, the TGI in the assay with MDA-MB-435, in the assay on SN12C renal and in the assay on NCI-H226 lung was over 25 µM each time.
On to `COc1ccc(C(=O)Nc2cccc(C3CC(=O)c4c(cc(OC)c(OC)c4OC)O3)c2)cc1` (centres undefined), for which the GI50 in the assay on EKVX NSCLC was 3.12 µM; in the assay with A498 renal it was 2 µM; in the assay on SK-MEL-28 melanoma it was 5.13 µM; in the assay on BT-549 breast, 1.01 µM; in the assay on OVCAR-3 ovarian it was 0.337 µM; in the assay with NCI-H522 lung, 0.411 µM. Further, the GI50 in the assay on MDA-MB-435 was 0.276 µM; in the assay with SN12C renal it was 1.62 µM; in the assay on NCI-H226 lung, 2.6 µM. In addition, the TGI is over 100 µM in the assay with EKVX NSCLC; 8.12 µM with A498 renal; over 100 µM in the assay with SK-MEL-28 melanoma; 7.81 µM in the assay with BT-549 breast; 39.7 µM with OVCAR-3 ovarian; 5.15 µM with NCI-H522 lung. The TGI in the assay on MDA-MB-435 is 1.4 µM; in the assay with SN12C renal, over 100 µM; with NCI-H226 lung, 43.1 µM.
In the case of `C=C1C(=O)O[C@H]2[C@H]1CC/C(Cn1cc(CCC)nn1)=C\CC[C@@]1(C)O[C@@H]21`, the GI50 in the assay on EKVX NSCLC is 11.5 µM; in the assay on A498 renal it was 21.5 µM; with U251 CNS, 14.1 µM; in the assay on BT-549 breast, 14.2 µM; in the assay with OVCAR-3 ovarian it was 3.96 µM; in the assay on NCI-H522 lung it was 3.06 µM. The GI50 in the assay with MDA-MB-435 is 10.4 µM; in the assay with SN12C renal, 12.1 µM; in the assay on NCI-H226 lung it was 12.6 µM. Also, the TGI in the assay with EKVX NSCLC is 23.6 µM; in the assay on A498 renal, 36.6 µM; in the assay with U251 CNS it was 27.7 µM; in the assay on BT-549 breast, 28.6 µM; with OVCAR-3 ovarian it was 14 µM; in the assay with NCI-H522 lung it was 10.7 µM. Further, the results for the TGI with MDA-MB-435, in the assay with SN12C renal and in the assay with NCI-H226 lung were 24.9 µM, 29.4 µM and 33.4 µM, respectively.
For the molecule `O=c1c2ccccc2nc(-c2ccc(Cl)cc2)n1O`, the TGI in the assay on EKVX NSCLC was 77.9 µM; in the assay with A498 renal, over 100 µM; in the assay on U251 CNS, over 100 µM; in the assay with BT-549 breast it was over 100 µM; in the assay on OVCAR-3 ovarian, over 100 µM; in the assay with NCI-H522 lung it was 57 µM. Besides, the TGI in the assay on MDA-MB-435, in the assay with SN12C renal and in the assay on NCI-H226 lung was over 100 µM each time.
Consider `CCOC(=O)C(=Cc1ccccc1Br)C(=O)OCC`, for which the TGI with EKVX NSCLC worked out at 17.3 µM; in the assay on A498 renal it was 5.07 µM; in the assay with SK-MEL-28 melanoma, 5.82 µM; in the assay with BT-549 breast it was 7.07 µM; in the assay on OVCAR-3 ovarian, 4.7 µM; in the assay on NCI-H522 lung, 4.3 µM. The TGI stood at 5.16 µM in the assay with MDA-MB-435, 15.6 µM with SN12C renal and 8.99 µM with NCI-H226 lung.
Take `NC(=O)NC(=O)CI`: the GI50 in the assay with A498 renal was 15 µM; with U251 CNS it was 15.3 µM; in the assay with SK-MEL-28 melanoma it was 13 µM; in the assay with BT-549 breast it was 4.28 µM; in the assay with OVCAR-3 ovarian, 1.92 µM; with NCI-H522 lung it was 0.208 µM. Also, the GI50 was 4.02 µM in the assay with MDA-MB-435, 6.63 µM in the assay on SN12C renal and 6.79 µM in the assay on NCI-H226 lung. Also, the TGI with A498 renal worked out at 31.7 µM; in the assay with U251 CNS it was 29.3 µM; in the assay on SK-MEL-28 melanoma, 26.2 µM; in the assay with BT-549 breast, 11.3 µM; in the assay with OVCAR-3 ovarian, 3.45 µM; with NCI-H522 lung, 0.475 µM. The values for the TGI in the assay with MDA-MB-435, in the assay with SN12C renal and in the assay with NCI-H226 lung were 15.9 µM, 19.2 µM and 28.2 µM, respectively.
Take `Cc1nc2cc(O)c(O)cc2cc1Oc1ccc(NC(=O)Nc2ccc(Cl)c(Cl)c2)cc1`: the GI50 in the assay on A498 renal was over 32.5 µM; in the assay with U251 CNS it was 6.58 µM; in the assay on SK-MEL-28 melanoma it was 9 µM; in the assay with BT-549 breast, 7.5 µM; in the assay with OVCAR-3 ovarian it was 8.52 µM; with NCI-H522 lung, 4.43 µM. The GI50 was 6.99 µM with MDA-MB-435, 8.97 µM with SN12C renal and 11.8 µM with NCI-H226 lung. Also, the TGI in the assay with A498 renal was over 32.5 µM; in the assay with U251 CNS, over 32.5 µM; with SK-MEL-28 melanoma it was 30.1 µM; in the assay on BT-549 breast it was over 32.5 µM; in the assay on OVCAR-3 ovarian, 19.9 µM; in the assay on NCI-H522 lung, 12.5 µM. In addition, the values for the TGI in the assay on MDA-MB-435, in the assay on SN12C renal and in the assay with NCI-H226 lung were over 32.5 µM, 30.3 µM and over 32.5 µM, respectively.
Consider `NS(=O)(=O)c1ccc(-n2nc(-c3ccc(Cl)cc3)cc2C2=CC(=O)C=CC2=O)cc1`, for which the GI50 in the assay on EKVX NSCLC is 28.4 µM; in the assay with A498 renal, 22.8 µM; in the assay with BT-549 breast, 22.5 µM; with OVCAR-3 ovarian, 22.7 µM; with NCI-H522 lung, 31 µM; in the assay on MDA-MB-435, 22.9 µM. Also, the GI50 in the assay on SN12C renal is 19.7 µM; in the assay on NCI-H226 lung, 13.8 µM. Also, the TGI with EKVX NSCLC stood at 91.1 µM; in the assay with A498 renal, 70.2 µM; in the assay on BT-549 breast, 70.8 µM; in the assay on OVCAR-3 ovarian it was 42.9 µM; in the assay on NCI-H522 lung, 87.2 µM; in the assay on MDA-MB-435, 67.1 µM. For the same molecule, the TGI in the assay on SN12C renal is 36.5 µM; in the assay with NCI-H226 lung, 34.4 µM.

(Values after PubChem BioAssay (NCI).)
